Data as given in patent publication US20230167073A1 (Teijin Pharma Limited, priority 2020, published 2023).

Target: T1, Human TRPC6 (Homo sapiens, UniProt Q9Y210)
T1 construct: expressed in transfected cells
T1 sequence (Q9Y210 1-931): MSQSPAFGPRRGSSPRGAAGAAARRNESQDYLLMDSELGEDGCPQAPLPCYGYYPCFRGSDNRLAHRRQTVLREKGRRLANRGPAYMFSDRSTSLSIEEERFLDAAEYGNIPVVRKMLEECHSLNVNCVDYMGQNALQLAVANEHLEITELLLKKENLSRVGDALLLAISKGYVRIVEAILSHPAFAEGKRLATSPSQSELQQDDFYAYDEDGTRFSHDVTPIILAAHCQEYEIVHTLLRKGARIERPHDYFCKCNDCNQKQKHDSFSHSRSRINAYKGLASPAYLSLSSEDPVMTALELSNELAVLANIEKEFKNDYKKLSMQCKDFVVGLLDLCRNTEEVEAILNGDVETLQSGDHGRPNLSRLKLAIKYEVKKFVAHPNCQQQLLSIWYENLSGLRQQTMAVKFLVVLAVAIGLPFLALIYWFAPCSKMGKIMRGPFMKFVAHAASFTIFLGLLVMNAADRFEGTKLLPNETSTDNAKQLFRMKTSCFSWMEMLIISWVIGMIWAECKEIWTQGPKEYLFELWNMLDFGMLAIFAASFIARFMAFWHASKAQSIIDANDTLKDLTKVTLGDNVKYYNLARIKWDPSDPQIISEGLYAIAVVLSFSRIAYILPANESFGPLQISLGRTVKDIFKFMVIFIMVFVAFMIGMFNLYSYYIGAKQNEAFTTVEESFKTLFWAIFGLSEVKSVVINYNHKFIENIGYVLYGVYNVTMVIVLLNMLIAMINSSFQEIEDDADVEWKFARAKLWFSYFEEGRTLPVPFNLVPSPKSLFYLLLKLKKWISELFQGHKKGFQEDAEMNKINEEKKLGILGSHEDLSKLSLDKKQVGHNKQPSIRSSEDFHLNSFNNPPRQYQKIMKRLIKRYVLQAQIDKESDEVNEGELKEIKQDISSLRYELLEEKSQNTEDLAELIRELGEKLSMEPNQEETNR
Test: Evaluation of TRPC6 channel inhibitory activity (1), FLIPR Calcium 5 Assay Kit, OAG stimulation (Compound Nos. 1-1293)
Format: cell-based
Conditions: Human TRPC6 stably-expressing cells, OAG 30 μM, FLIPR Calcium 5 Assay Kit; read-out: Inhibitory activity (pIC50 class) (converted)
Outline: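 TRPC6 (human) stable cells, 24 h culture; Ca5 no-wash dye + probenecid 30 min; cpd 20 min; OAG 30 μM final; ΔF (pre-cpd min to post-OAG max); 0%/100% = no cpd / no cpd + no OAG; 4PL → pIC50, binned +/++/+++.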

Row | IC50 [nM] | Structure (SMILES)
1 | 10 to 1000 | CC(C)n1cc(Oc2cc(Cl)ccc2-c2ncc(CCN)cn2)cn1 [compound 1020, 2-[2-[4-chloro-2-(1-propan-2-ylpyrazol-4-yl)oxyphenyl]pyrimidin-5-yl]ethanamine]
2 | < 10 | Cn1nc(C2CC2)cc1Oc1cc(C#N)ccc1-c1ccc(CN)n2ccnc12 [compound 493, 4-[5-(aminomethyl)imidazo[1,2-a]pyridin-8-yl]-3-(5-cyclopropyl-2-methylpyrazol-3-yl)oxybenzonitrile]
3 | < 10 | Cn1nc(C2CCC2)cc1Oc1cc(C#N)ccc1-c1ncc(C(O)CN)cn1 (stereo not drawn) [Compound 278, 4-[5-(2-amino-1-hydroxyethyl)pyrimidin-2-yl]-3-(5-cyclobutyl-2-methylpyrazol-3-yl)oxybenzonitrile]
4 | 10 to 1000 | Cc1cc(Oc2cc(C#N)ccc2-c2ccnc(OCCN)c2)cc(N2CCOCC2)n1 [compound 567, 4-[2-(2-aminoethoxy)pyridin-4-yl]-3-(2-methyl-6-morpholin-4-ylpyridin-4-yl)oxybenzonitrile]
5 | > 1000 | Cn1nc(-c2ccccn2)cc1Oc1cc(C#N)cnc1-c1ccc(CN)cn1 [Compound No. 1289, 6-[5-(Aminomethyl)pyridin-2-yl]-5-(2-methyl-5-pyridin-2-ylpyrazol-3-yl)oxypyridine-3-carbonitrile]
6 | 10 to 1000 | COC(c1cc(-c2ccccc2)no1)c1cc(C#N)ccc1-c1ccc(CCN)cc1 (stereo not drawn) [compound 1231, 4-[4-(2-aminoethyl)phenyl]-3-[methoxy-(3-phenyl-1,2-oxazol-5-yl)methyl]benzonitrile]
7 | < 10 | Cc1nn(CC2CC2)cc1C(=O)c1cc(C#N)ccc1-c1ncc(CN)cn1 [compound 1035, 4-[5-(aminomethyl)pyrimidin-2-yl]-3-[1-(cyclopropylmethyl)-3-methylpyrazole-4-carbonyl]benzonitrile]
8 | > 1000 | Cn1nc(Br)cc1Oc1cc(C#N)ccc1-c1ncc(CN)cn1 [compound 929, 4-[5-(aminomethyl)pyrimidin-2-yl]-3-(5-bromo-2-methylpyrazol-3-yl)oxybenzonitrile]
9 | < 10 | Cc1nc(-c2cccc(F)c2)cn1Cc1cc(C#N)ccc1-c1ccc(CCN)cn1 [compound 1156, 4-[5-(2-aminoethyl)pyridin-2-yl]-3-[[4-(3-fluorophenyl)-2-methylimidazol-1-yl]methyl]benzonitrile]
10 | < 10 | Cc1nc(Oc2cc(C#N)ccc2-c2ccc(C(O)CN)c(F)c2F)cc(N2CCOCC2)n1 (stereo not drawn) [Compound 153, 4-[4-(2-amino-1-hydroxyethyl)-2,3-difluorophenyl]-3-(2-methyl-6-morpholin-4-ylpyrimidin-4-yl)oxybenzonitrile]
11 | 10 to 1000 | N#Cc1ccc(-c2ncc(CCN)cn2)c(Oc2nnc(-c3cccnc3)s2)c1 [compound 729, 4-[5-(2-aminoethyl)pyrimidin-2-yl]-3-[(5-pyridin-3-yl-1,3,4-thiadiazol-2-yl)oxy]benzonitrile]
12 | > 1000 | Cc1nc(-c2cncc(F)c2)cn1Cc1cc(C#N)ccc1-c1ncc(CCN)cn1 [compound 1194, 4-[5-(2-aminoethyl)pyrimidin-2-yl]-3-[[4-(5-fluoropyridin-3-yl)-2-methylimidazol-1-yl]methyl]benzonitrile]
13 | > 1000 | N#Cc1ccc(-c2ncc(CN)cn2)c(Oc2nnc(N3CCC3)s2)c1 [compound 720, 4-[5-(aminomethyl)pyrimidin-2-yl]-3-[[5-(azetidin-1-yl)-1,3,4-thiadiazol-2-yl]oxy]benzonitrile]
14 | > 1000 | N#Cc1ccc(-c2ncc(CN)cn2)c(C(=O)c2cnn(-c3ccncn3)c2)c1 [compound 1055, 4-[5-(aminomethyl)pyrimidin-2-yl]-3-(1-pyrimidin-4-ylpyrazole-4-carbonyl)benzonitrile]
15 | < 10 | N#Cc1ccc(-c2ncc(CCN)cn2)c(Cn2cc(C3CC3)nn2)c1 [Compound No. 1187, 4-[5-(2-Aminoethyl)pyrimidin-2-yl]-3-[(4-cyclopropyltriazol-1-yl)methyl]benzonitrile]
16 | > 1000 | N#Cc1ccc(-c2ccc(CCN)cc2)c(Oc2cnnc(-c3ccccc3C(N)=O)c2)c1 [Compound 94, 2-[5-[2-[4-(2-aminoethyl)phenyl]-5-cyanophenoxy]pyridazin-3-yl]benzamide]
17 | < 10 | Cc1cc(Oc2cc(C#N)ccc2-c2ncc([C@H](O)CN)cn2)cc(N2CCOC(C)(C)C2)n1 [compound 532, 4-[5-[(1S)-2-amino-1-hydroxyethyl]pyrimidin-2-yl]-3-[2-(2,2-dimethylmorpholin-4-yl)-6-methylpyridin-4-yl]oxybenzonitrile]
18 | 10 to 1000 | Cc1nc(Sc2cc(C#N)ccc2-c2ncc(CCN)cn2)cc(N2CCOCC2)n1 [compound 1254, 4-[5-(2-aminoethyl)pyrimidin-2-yl]-3-(2-methyl-6-morpholin-4-ylpyrimidin-4-yl)sulfanylbenzonitrile]
19 | 10 to 1000 | CN(C)c1cc(Oc2cc(C#N)ccc2-c2ccc(CN)cn2)cnn1 [compound 698, 4-[5-(aminomethyl)pyridin-2-yl]-3-[6-(dimethylamino)pyridazin-4-yl]oxybenzonitrile]
20 | < 10 | N#Cc1ccc(-c2ncc(CN)cn2)c(C(=O)c2sc(N3CCOCC3)nc2C(F)(F)F)c1 [compound 1087, 4-[5-(aminomethyl)pyrimidin-2-yl]-3-[2-morpholin-4-yl-4-(trifluoromethyl)-1,3-thiazole-5-carbonyl]benzonitrile]
21 | > 1000 | Cn1nc(-c2ccccn2)cc1Oc1cc(C#N)cnc1-c1ccc(CN)cc1 [compound 1288, 6-[4-(aminomethyl)phenyl]-5-(2-methyl-5-pyridin-2-ylpyrazol-3-yl)oxypyridine-3-carbonitrile]
22 | 10 to 1000 | Cc1nc(Oc2cc(C#N)ccc2-c2ccc(C(O)CN)c(C(F)(F)F)c2)cc(N2CCOCC2)n1 (stereo not drawn) [Compound 151, 4-[4-(2-amino-1-hydroxyethyl)-3-(trifluoromethyl)phenyl]-3-(2-methyl-6-morpholin-4-ylpyrimidin-4-yl)oxybenzonitrile]
23 | 10 to 1000 | Cc1nc(Oc2cc(C#N)ccc2-c2ncc(CCN)cn2)cc(O[C@H]2CCOC2)n1 [compound 888, 4-[5-(2-aminoethyl)pyrimidin-2-yl]-3-[2-methyl-6-[(3S)-oxolan-3-yl]oxypyrimidin-4-yl]oxybenzonitrile]
24 | > 1000 | Cc1nc(Oc2cc(C#N)ccc2-c2ccc(N3CCN(C)CC3)cc2)cc(N2CCOCC2)n1 [Compound 10, 3-(2-methyl-6-morpholin-4-ylpyrimidin-4-yl)oxy-4-[4-(4-methylpiperazin-1-yl)phenyl]benzonitrile]
25 | 10 to 1000 | N#Cc1ccc(-c2ccc(CCN)cc2)c(Oc2cnnc(OC3CCOC3)c2)c1 (stereo not drawn) [Compound 125, 4-[4-(2-aminoethyl)phenyl]-3-[6-(oxolan-3-yloxy)pyridazin-4-yl]oxybenzonitrile]
26 | > 1000 | Cc1nc(Oc2cc(C#N)ccc2-c2ncc(CN)cn2)cc(N2CC(F)C2)n1 [compound 793, 4-[5-(aminomethyl)pyrimidin-2-yl]-3-[6-(3-fluoroazetidin-1-yl)-2-methylpyrimidin-4-yl]oxybenzonitrile]
27 | > 1000 | Cc1c(Oc2cc(F)ccc2-c2ncc(CCN)cn2)cnn1CC(F)(F)F [compound 970, 2-[2-[4-fluoro-2-[5-methyl-1-(2,2,2-trifluoroethyl)pyrazol-4-yl]oxyphenyl]pyrimidin-5-yl]ethanamine]
